Measurements taken from US10005739B2, “Quinazolinone and isoquinolinone derivative” (CHUGAI SEIYAKU KABUSHIKI KAISHA, priority 2013, dated 2018).

What was measured:
[1] = system: human endometrial cancer cell line MFE-280; assay: Measurement of antitumor effect in MFE-280 cancer-bearing nude mice; assay type: in vivo; details: MFE-280 xenograft in BALB/c nude mice, 200 mg/kg orally once daily, 11th day
[2] = target: T1, DDR1 (Homo sapiens (Human), UniProt Q08345); assay: Measurement of DDR1 enzyme inhibitory activity (phosphorylation of biotinylated peptide, time-resolved fluorescence); assay type: biochemical; details: human DDR1 enzyme, biotinylated peptide phosphorylation; read-out: DDR1 enzyme inhibition assay IC50
T1 sequence (Q08345 19-913): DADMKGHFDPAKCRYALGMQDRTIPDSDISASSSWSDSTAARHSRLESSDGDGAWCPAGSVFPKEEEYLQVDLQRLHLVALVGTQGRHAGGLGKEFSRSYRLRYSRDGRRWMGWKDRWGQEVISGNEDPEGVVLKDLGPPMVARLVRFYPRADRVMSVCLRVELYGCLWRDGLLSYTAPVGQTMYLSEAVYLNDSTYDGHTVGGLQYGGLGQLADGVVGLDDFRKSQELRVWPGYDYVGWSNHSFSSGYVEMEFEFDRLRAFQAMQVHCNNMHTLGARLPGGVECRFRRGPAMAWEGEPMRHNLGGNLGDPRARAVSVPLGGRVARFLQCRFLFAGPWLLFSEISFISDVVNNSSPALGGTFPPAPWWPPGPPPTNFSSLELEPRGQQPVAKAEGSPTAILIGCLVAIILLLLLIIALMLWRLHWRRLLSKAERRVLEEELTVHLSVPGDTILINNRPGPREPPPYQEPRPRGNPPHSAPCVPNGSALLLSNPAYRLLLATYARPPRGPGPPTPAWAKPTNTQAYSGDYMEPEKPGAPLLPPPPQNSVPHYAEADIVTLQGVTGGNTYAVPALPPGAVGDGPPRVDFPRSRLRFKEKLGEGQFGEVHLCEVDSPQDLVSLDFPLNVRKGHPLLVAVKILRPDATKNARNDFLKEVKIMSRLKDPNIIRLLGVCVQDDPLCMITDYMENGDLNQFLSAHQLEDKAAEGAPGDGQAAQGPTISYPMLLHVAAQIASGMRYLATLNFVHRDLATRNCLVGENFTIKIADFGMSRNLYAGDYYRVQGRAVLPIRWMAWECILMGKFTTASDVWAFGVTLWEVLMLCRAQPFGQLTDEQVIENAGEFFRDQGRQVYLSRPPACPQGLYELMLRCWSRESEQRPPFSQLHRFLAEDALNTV
Outline: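 Baculovirus-expressed human DDR1 phosphorylated a biotinylated peptide, and inhibition of that phosphorylation was measured. Phosphopeptide was detected by time-resolved fluorescence using europium cryptate–labelled anti-phosphotyrosine antibody with streptavidin-XL665.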

[3] = target: T1, DDR1; assay: Measurement of DDR1 binding activity (LanthaScreen Eu Kinase Binding Assay)
Procedure: 2. Measurement of DDR1 Binding Activity
DDR1 binding activity was measured using the LanthaScreen (Registered trademark) Eu Kinase Binding Assay (manufactured by Life Technologies Corporation). […] After one-hour reaction at room temperature, the fluorescence resonance energy transfer was measured.

Compound	IC50 [2]	further results
CCS(=O)(=O)c1ccc(Cl)cc1Nn1cnc2ccc(OC(F)(F)F)cc2c1=O [Compound A-45, 3-(5-Chloro-2-ethylsulfonylanilino)-6-(trifluoromethoxy)quinazolin-4-one]		TGI after 11 days [1]: 72%
CCSc1ccc(Cl)cc1Nn1cnc2cc(C)c(Br)cc2c1=O [Compound A-7, 6-Bromo-3-(5-chloro-2-ethylsulfanylanilino)-7-methylquinazolin-4-one]	800 nM	
CCOc1ccc(S(=O)(=O)CC)c(Nn2cnc3c(Br)cc(C(F)(F)F)cc3c2=O)c1 [Compound C-32, 8-Bromo-3-(5-ethoxy-2-ethylsulfonylanilino)-6-(trifluoromethyl)quinazolin-4-one]	1970 nM	
CCSc1ccc(Cl)cc1Nn1cnc2cnc(F)cc2c1=O [Compound A-19, 3-(5-Chloro-2-ethylsulfanylanilino)-6-fluoropyrido[3,4-d]pyrimidin-4-one]	510 nM	
CCS(=O)(=O)c1ncc(Cl)cc1Nn1cnc2c(Br)cc(C)cc2c1=O [Compound D-5, 8-Bromo-3-[(5-chloro-2-ethylsulfonylpyridin-3-yl)amino]-6-methylquinazolin-4-one]	130 nM	
CCSc1cc(Cl)c(Cl)cc1Nn1cnc2ccc(C(F)(F)F)cc2c1=O [Compound C-40, 3-(4,5-Dichloro-2-ethylsulfanylanilino)-6-(trifluoromethyl)quinazolin-4-one]	190 nM	
CCSc1ccc(Cl)cc1Nn1cnc2cnc(Cl)cc2c1=O [Compound A-14, 6-Chloro-3-(5-chloro-2-ethylsulfanylanilino)pyrido[3,4-d]pyrimidin-4-one]	130 nM	
CCSc1ccc(Br)cc1Nn1cnc2c(Br)cc(OC(F)(F)F)cc2c1=O [Compound C-23, 8-Bromo-3-(5-bromo-2-ethylsulfanylanilino)-6-(trifluoromethoxy)quinazolin-4-one]	400 nM	
CCS(=O)(=O)c1ccc(Cl)cc1Nn1cnc2c(-c3ccc(F)cc3)cc(C)cc2c1=O [Compound A-4, 3-(5-Chloro-2-ethylsulfonylanilino)-8-(4-fluorophenyl)-6-methylquinazolin-4-one]	1350 nM	
CCS(=O)(=O)c1ccc(Cl)cc1Cn1cnc2c(Cl)c(CO)c(C(F)(F)F)cc2c1=O [Compound K-26, 8-Chloro-3-[(5-chloro-2-ethylsulfonylphenyl)methyl]-7-(hydroxymethyl)-6-(trifluoromethyl)quinazolin-4-one]		IC50 [3]: 240 nM
CC#Cc1ccc2ncn(Nc3cc(Cl)ccc3S(=O)(=O)CC)c(=O)c2c1 [Compound A-65, 3-(5-Chloro-2-ethylsulfonylanilino)-6-prop-1-ynylquinazolin-4-one]	3110 nM	

The next lines start with results.

IC50 [2]	Compound	further results
790 nM	CCSc1ccc(Cl)cc1Cn1cnc2cc(C)c(I)cc2c1=O [Compound E-7, 3-[(5-Chloro-2-ethylsulfanylphenyl)methyl]-6-iodo-7-methylquinazolin-4-one]	
1340 nM	CCS(=O)(=O)c1ccc(N)cc1Cn1ccc2ccc(OC(F)(F)F)cc2c1=O [Compound F-10, 2-[(5-Amino-2-ethylsulfonylphenyl)methyl]-7-(trifluoromethoxy)isoquinolin-1-one]	
950 nM	CCSc1ccc(Cl)cc1Cn1cnc2cc(C)c(Br)cc2c1=O [Compound E-5, 6-Bromo-3-[(5-chloro-2-ethylsulfanylphenyl)methyl]-7-methylquinazolin-4-one]	
